Data on 19 compounds can be found in patent US12122750B2, “AT2R antagonists and uses thereof” (Eli Lilly and Company, priority 2022, dated 2024).

The target of this experiment is recombinant human angiotensin-II receptor subtype 2 (hAT2R) (Homo sapiens (Human), UniProt P50052). As to the kind of experiment: Competitive radioligand binding assay (SPA), hAT2R HEK293 membranes. Particulars: [125I]-Tyr4-Angiotensin-II, read-out: AT2R Ki. As to the method: Compound Solubilization Test and reference compounds were received as dry powder reagents, weighed, and solubilized in 100% DMSO to generate a working stock concentration of 10 mM. Membrane Preparation Protocol (hAT2R HEK293 and rAT2R HEK293) hAT2R membranes were prepared from human embryonic kidney (HEK293) cells which were stably transfected with recombinant human angiotensin-II receptor subtype 2 (hAT2R). Cells from the stable cell lines were expanded in tissue culture flasks to generate a large population of cells; cell pellet (>1 gm), and these cell pellets were stored frozen prior to initiating this membrane isolation procedure for each receptor isoform. Frozen cell pellets were thawed in ice-cold homogenization/resuspension buffer (50 mM Tris-HCl, pH 7.5) containing one Complete© protease inhibitor tablet with EDTA (Roche Diagnostics) per 50 mL buffer, and cell pellet was resuspended at a ratio of 10 mL homogenization buffer to gram of starting cell pellet. Cell suspension was homogenized with an overhead motor-driven Teflon-glass homogenizer using 15 to 20 strokes, followed by centrifugation at 1100×g for 10 minutes at 4° C. The supernatant was saved on ice, pellets were homogenized as before, and centrifuged at 1100×g for 10 minutes at 4° C. Both supernatants were combined and subsequently centrifuged at 35,000×g for 60 minutes at 4° C. The final centrifugation pellet (pellet 2) containing the isolated membranes was resuspended in buffer (4 to 5 mL/g of starting cell paste) containing protease inhibitors and quick frozen in liquid nitrogen prior to storage at -80° C. Protein concentration was determined using a BCA kit (ThermoScientific, Inc.) with bovine serum albumin (BSA) as standard. […] The assays were performed with a scintillation proximity assay (SPA) method using polyvinyltoluene (PVT) wheat germ agglutinin-coupled SPA beads (Perkin Elmer Cat. #RPNQ0001). Assay buffer containing BSA (50 mM Tris-HCl, pH 7.5, 150 mM NaCl, 0.1% w/v fatty-acid free BSA) was used for preparing radioligand, membrane and SPA bead reagent dilution to working stock concentrations. Reference control and test compounds were diluted to obtain ten-point concentration response curves using a four-fold serial dilution protocol onto assay plates, dispensed acoustically from DMSO stock using automated ECHO instrument technology (Labcyte, Inc.). Concentration response curves were routinely generated with the highest final assay concentration for the reference angiotensin-II control at 50 nM, and the highest final assay concentration for the test compounds at 50 μM. […] The hAT2R membrane was combined with PVT-WGA SPA beads to obtain a final assay concentration of 0.25 μg/well hAT2R membrane+0.1 mg/well PVT-WGA SPA bead. And the hAT1R membrane PVT-WGA SPA bead final concentrations was 0.5 μg/well hAT1R membrane+0.1 mg/well PVT-WGA SPA bead. […] For all assays, radioligand addition was followed by the addition of membrane-SPA bead mixture, i.e., the hAT2R membrane-SPA bead mixture (30 μL), the rAT2R membrane-SPA bead mixture, or the AT1R membrane-SPA bead mixture (30 μL) into the assay plate. All dispensing steps were added using a Multiflo FX (Biotek, Inc.) bulk dispensing instrument. After reagent addition steps, assay plates were sealed, and plate contents mixed for one minute on a benchtop micro-plate shaker. Following a 10-hour incubation at room temperature to allow for bead settling and radioligand binding, bound radioactivity was quantitated using a Microbeta Trilux scintillation counter (Perkin Elmer) and expressed as counts per minute (CPM). The unlabeled angiotensin-II control was included on each plate as an experimental assay reference. […] Data Analysis Procedures Compounds were tested in a 10-point concentration response curve (CRC) format, with each plate containing the positive control angiotensin-II positive reference compound, and experimental compounds.
Sequence of recombinant human angiotensin-II receptor subtype 2 (hAT2R) (P50052 whole entry): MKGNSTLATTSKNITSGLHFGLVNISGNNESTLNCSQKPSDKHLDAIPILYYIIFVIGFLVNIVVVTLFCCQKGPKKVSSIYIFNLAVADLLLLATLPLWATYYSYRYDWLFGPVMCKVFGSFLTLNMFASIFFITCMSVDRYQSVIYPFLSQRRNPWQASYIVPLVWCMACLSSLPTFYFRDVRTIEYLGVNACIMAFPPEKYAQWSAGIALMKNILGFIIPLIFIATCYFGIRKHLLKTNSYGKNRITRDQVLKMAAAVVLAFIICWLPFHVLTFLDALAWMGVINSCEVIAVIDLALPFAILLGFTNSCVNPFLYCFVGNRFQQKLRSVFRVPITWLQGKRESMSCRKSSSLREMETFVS
Turning to `O=C(CC1(C(=O)O)CCN(c2ccccc2)CC1)N(c1ccccc1)C1CCCCC1` [Example 48, 4-[2-(N-cyclohexylanilino)-2-oxo-ethyl]-1-phenyl-piperidine-4-carboxylic acid], the Ki stood at 3.59 nM.

Take `O=C(CC1(C(=O)O)CCN(c2ccccn2)CC1)N(c1ccccc1)C1CCCCC1` [Example 49, 4-[2-(N-cyclohexylanilino)-2-oxo-ethyl]-1-(2-pyridyl)piperidine-4-carboxylic acid]: the Ki was 5.21 nM.

In the case of `CN(C(=O)N1CCC(CC(=O)N(c2ccccc2)c2ccccc2F)(C(=O)O)CC1)C(C1CC1)C1CC1` [Example 55, 1-[dicyclopropylmethyl(methyl)carbamoyl]-4-[2-(N-(2-fluorophenyl)anilino)-2-oxo-ethyl]piperidine-4-carboxylic acid], the Ki amounted to 3.11 nM.

Take `O=C(N1CCC(CC(=O)N(c2ccccc2)c2ccccc2F)(C(=O)O)CC1)N1CCc2ccccc21` [Example 56, 4-[2-(N-(2-fluorophenyl)anilino)-2-oxo-ethyl]-1-(indoline-1-carbonyl)piperidine-4-carboxylic acid]: the Ki is 2.99 nM.

In the case of `O=C(N1CCC(CC(=O)N(c2ccccc2)c2cccc(F)c2)(C(=O)O)CC1)N1CCc2ccccc21` [Example 57, 4-[2-(N-(3-fluorophenyl)anilino)-2-oxo-ethyl]-1-(indoline-1-carbonyl)piperidine-4-carboxylic acid], the Ki turned out to be 7.82 nM.

For the compound `O=C(N1CCC(CC(=O)N(c2ccccc2)c2ccc(F)cc2)(C(=O)O)CC1)N1CCc2ccccc21` [Example 58, 4-[2-(N-(4-fluorophenyl)anilino)-2-oxo-ethyl]-1-(indoline-1-carbonyl)piperidine-4-carboxylic acid], the Ki amounted to 9.86 nM.

For `O=C(N1CCC(CC(=O)N(c2ccccc2F)c2ccccc2F)(C(=O)O)CC1)N1CCc2ccccc21` [Example 59, 4-[2-(2-fluoro-N-(2-fluorophenyl)anilino)-2-oxo-ethyl]-1-(indoline-1-carbonyl)piperidine-4-carboxylic acid], the inhibitory constant (Ki) is 4.23 nM.

As for `O=C(N1CCC(CC(=O)N(c2cccc(F)c2)c2ccccc2F)(C(=O)O)CC1)N1CCc2ccccc21` [Example 60, 4-[2-(3-fluoro-N-(2-fluorophenyl)anilino)-2-oxo-ethyl]-1-(indoline-1-carbonyl)piperidine-4-carboxylic acid], the Ki was determined as 3.18 nM.

As to `O=C(N1CCC(CC(=O)N(c2ccc(F)cc2)c2ccccc2F)(C(=O)O)CC1)N1CCc2ccccc21` [Example 61, 4-[2-(4-fluoro-N-(2-fluorophenyl)anilino)-2-oxo-ethyl]-1-(indoline-1-carbonyl)piperidine-4-carboxylic acid], the Ki was found to be 3.73 nM.

Take `CN(C(=O)N1CCC(CC(=O)N(c2ccccc2)C2(C3CC3)CC2)(C(=O)O)CC1)c1ccc(F)cc1` [compound 20, 4-[2-(N-(1-cyclopropylcyclopropyl)anilino)-2-oxo-ethyl]-1-[(4-fluorophenyl)-methyl-carbamoyl]piperidine-4-carboxylic acid]: the Ki was 2.11 nM.

Turning to `CN(C(=O)N1CCC(CC(=O)N(c2ccc(F)cc2)C2CCCCC2)(C(=O)O)CC1)c1ccc(F)cc1` [compound 21, 4-[2-(N-cyclohexyl-4-fluoro-anilino)-2-oxo-ethyl]-1-[(4-fluorophenyl)-methyl-carbamoyl]piperidine-4-carboxylic acid], the Ki is 4.01 nM.

Consider `CC1CCCC(N(C(=O)CC2(C(=O)O)CCN(C(=O)N(C)c3ccc(F)cc3)CC2)c2ccccc2)C1` (stereo not shown) [compound 22, 1-[(4-fluorophenyl)-methyl-carbamoyl]-4-[2-(N-(3-methyl-cyclohexyl)anilino)-2-oxo-ethyl]piperidine-4-carboxylic acid], for which the Ki worked out at 0.573 nM.

For the compound `Cc1cccc(N(C(=O)CC2(C(=O)O)CCN(C(=O)N(C)c3ccc(F)cc3)CC2)c2ccccc2)c1` [compound 23, 1-[(4-fluorophenyl)-methyl-carbamoyl]-4-[2-[N-(m-tolyl)anilino]-2-oxo-ethyl]piperidine-4-carboxylic acid], the Ki is 0.823 nM.

Take `CN(C(=O)N1CCC(CC(=O)N(c2ccccc2)c2cccc(F)c2)(C(=O)O)CC1)c1ccc(F)cc1` [compound 24, 4-[2-(N-(3-fluorophenyl)anilino)-2-oxo-ethyl]-1-[(4-fluorophenyl)-methyl-carbamoyl]piperidine-4-carboxylic acid]: the Ki turned out to be 0.774 nM.

Regarding `COc1cccc(N(C(=O)CC2(C(=O)O)CCN(C(=O)N(C)c3ccc(F)cc3)CC2)c2ccccc2)c1` [compound 25, 1-[(4-fluorophenyl)-methyl-carbamoyl]-4-[2-(N-(3-methoxyphenyl)anilino)-2-oxo-ethyl]piperidine-4-carboxylic acid], the Ki turned out to be 2.7 nM.

Turning to `CN(C(=O)N1CCC(CC(=O)N(c2cccc(F)c2)C2CCCCC2)(C(=O)O)CC1)c1ccc(F)cc1` [compound 27, 4-[2-(N-cyclohexyl-3-fluoro-anilino)-2-oxo-ethyl]-1-[(4-fluorophenyl)-methyl-carbamoyl]piperidine-4-carboxylic acid], the Ki is 0.4 nM.

On to `CC(C)c1ccc(N(C(=O)CC2(C(=O)O)CCN(C(=O)N(C)c3ccc(F)cc3)CC2)c2ccccc2)cc1` [compound 28, 1-[(4-fluorophenyl)-methyl-carbamoyl]-4-[2-(N-(4-isopropylphenyl)anilino)-2-oxo-ethyl]piperidine-4-carboxylic acid], for which the Ki is 3.39 nM.

As to `Cc1ccc(N(C(=O)CC2(C(=O)O)CCN(C(=O)N(C)c3ccc(F)cc3)CC2)c2ccccc2)cc1` [compound 29, 1-[(4-fluorophenyl)-methyl-carbamoyl]-4-[2-oxo-2-[N-(p-tolyl)anilino]ethyl]piperidine-4-carboxylic], the Ki came out at 3.11 nM.

For the compound `CN(C(=O)N1CCC(CC(=O)N(c2ccccc2)c2ccc(Cl)cc2)(C(=O)O)CC1)c1ccc(F)cc1` [compound 31, -[2-(N-(4-chlorophenyl)anilino)-2-oxo-ethyl]-1-[(4-fluorophenyl)-methyl-carbamoyl]piperidine-4-carboxylic acid], the Ki is 1.89 nM.
